Experimental data from patent US8476197B2, “Aminopropenoates as fungicides” (priority 2009, dated 2013).
Where two headings read alike, the source gives them in different places. Marks after values point to notes of the source that are not given here.

Log P (pH 2.7) | Structure (SMILES) | further results
3.13^[a] | COC(=O)C(C#N)=C(NC1(C)CCCCC1)c1cccnc1Cl [Compound 1009] | 
2.98^[a] | CCOC(=O)C(C#N)=C(NC(C)(C)C#N)c1nc(Cl)ccc1Cl [Compound 1011] | 
3.81^[a] | C=CCCCC(C=C)NC(=C(C#N)C(=O)OCC)c1conc1C (centres unmarked) [Compound 1020] | 
4.65^[a] | C=CCCCC(C=C)NC(=C(C#N)C(=O)OCC)c1sccc1Cl (centres unmarked) [Compound 1023] | 
4.65^[a] | C=CCCCC(C=C)NC(=C(C#N)C(=O)OCC)c1ccsc1I (centres unmarked) [Compound 1024] | 
2.98^[a] | CCC#CC(C)(C)NC(=C(C#N)C(=O)OC)c1cccnc1Cl [Compound 1025] | 
3.42^[a] | C#CC(C)(C)NC(=C(C#N)C(=O)OCC)c1sccc1Br [Compound 1027] | 
3.42^[a] | C#CC(C)(C)NC(=C(C#N)C(=O)OCC)c1ccsc1Br [Compound 1029] | 
2.66^[a] | C#CC(C)(C)NC(=C(C#N)C(=O)OCC)c1conc1C [Compound 1030] | 
3.41^[a] | C#CC(C)(C)NC(=C(C#N)C(=O)OCC)c1sccc1Cl [Compound 1032] | 
3.99^[a] | C#CC(C)(C)NC(=C(C#N)C(=O)OCC)c1cc(Cl)sc1Cl [Compound 1033] | 
2.44^[a] | C#CC(C)(C)NC(=C(C#N)C(=O)OCC)c1cn(C)nc1OC [Compound 1034] | 
2.54^[a] | C#CC(C)(C)NC(=C(C#N)C(=O)OCC)c1cn(C)nc1C=C [Compound 1035] | 
3.61^[a] | C#CC(C)(C)NC(=C(C#N)C(=O)OCC)c1sc(Cl)nc1Cl [Compound 1036] | 
2.57^[a] | CC#CC(C)(C)NC(=C(C#N)C(=O)OC)c1cccnc1Cl [Compound 1039] | 
3.85^[a] | CC#CC(C)(C)NC(=C(C#N)C(=O)OCC)c1sccc1Br [Compound 1041] | 
2.14^[a] | C#CC(C)NC(=C(C#N)C(=O)OC)c1cccnc1Cl (centres unmarked) [Compound 1045] | 

Log P (pH 2.7) | Structure (SMILES) | further results
3.25^[a] | C#CC(C)NC(=C(C#N)C(=O)OCC)c1sccc1C(F)(F)F (centres unmarked) [Compound 1046] | 
3.17^[a] | C#CC(C)NC(=C(C#N)C(=O)OCC)c1sccc1Br (centres unmarked) [Compound 1047] | 
3.73^[a] | COC(=O)C(C#N)=C(NC1CC(C)CCC1C)c1cccnc1Cl (centres unmarked) [Compound 1057] | 
3.63^[a] | COC(=O)C(C#N)=C(NC1C(C)CCCC1C)c1cccnc1Cl (centres unmarked) [Compound 1058] | 
3.99^[a] | CCC1CCCC(C)C1NC(=C(C#N)C(=O)OC)c1cccnc1Cl (centres unmarked) [Compound 1060] | 
3.63^[a] | CCC1CCCCC1NC(=C(C#N)C(=O)OC)c1cccnc1Cl (centres unmarked) [Compound 1061] | 
2.99^[a] | C#CC1CCCCC1NC(=C(C#N)C(=O)OC)c1cccnc1Cl (centres unmarked) [Compound 1063] | 
3.44^[a] | CCOC(=O)C(C#N)=C(NC1CC1c1ccccc1)c1cccnc1Cl (centres unmarked) [Compound 1068] | 
3.09^[a] | COC(=O)C(C#N)=C(NC1CCCC(C(F)(F)F)C1)c1cccnc1Cl (centres unmarked) [Compound 1069] | 
3.73^[a] | COC(=O)C(C#N)=C(NC1CCC(C)C(C)C1)c1cccnc1Cl (centres unmarked) [Compound 1070] | 
3.42^[a] | COC(=O)C(C#N)=C(NC1CC(C(F)(F)F)CC(C(F)(F)F)C1)c1cccnc1Cl (centres unmarked) [Compound 1071] | 
3.37^[a] | COC(=O)C(C#N)=C(NC1CCCC(C)C1)c1cccnc1Cl (centres unmarked) [Compound 1074] | 
3.04^[a] | COC(=O)C(C#N)=C(NC1CCC(C(F)(F)F)CC1)c1cccnc1Cl (centres unmarked) [Compound 1075] | 
3.37^[a] | COC(=O)C(C#N)=C(NC1CCC(C)CC1)c1cccnc1Cl (centres unmarked) [Compound 1076] | 
4.51^[a] | COC(=O)C(C#N)=C(NC1CCC(C(C)(C)C)CC1)c1cccnc1Cl (centres unmarked) [Compound 1077] | 
3.06^[a] | COC(=O)C(C#N)=C(NC1CCc2ccccc21)c1cccnc1Cl (centres unmarked) [Compound 1078] | 

The remaining lines, values behind:

Structure (SMILES) | Log P (pH 2.7) | further results
COCCNC(=O)C(C#N)=C(NC(C)C(C)C)c1cn(C)nc1C(F)F (centres unmarked) [Compound 1005] | 2.59^[a] | 
CC(C)C(C)NC(=C(C#N)C(=O)NC1CC1)c1cn(C)nc1C(F)F (centres unmarked) [Compound 1006] | 2.66^[a] | 
C=CCNC(=O)C(C#N)=C(NC(C)C(C)C)c1cn(C)nc1C(F)F (centres unmarked) [Compound 1007] | 2.9^[a] | 
C=CCNC(=O)C(C#N)=C(NC(C)C(C)C)c1cn(C)nc1C(F)F (centres unmarked) [Compound 1008] | 2.68^[a] | 
COC(=O)C(C#N)=C(NC(C)(C)C#N)c1sc(C)nc1C(F)(F)F [Compound 1010] | 3.04^[a] | 
C=CCCCC(C=C)NC(=C(C#N)C(=O)OC)c1sc(C)nc1C(F)(F)F (centres unmarked) [Compound 1019] | 4.19^[a] | 
C=CCCCC(C=C)NC(=C(C#N)C(=O)OCC)c1cn(C)nc1C(F)(F)F (centres unmarked) [Compound 1021] | 4.14^[a] | 
C=CCCCC(C=C)NC(=C(C#N)C(=O)OCC)c1sc(C)nc1C(F)(F)F (centres unmarked) [Compound 1022] | 4.49^[a] | 
C#CC(C)(C)NC(=C(C#N)C(=O)OCC)c1cn(C)nc1C(F)(F)F [Compound 1031] | 3.02^[a] | 
C#CC(C)(C)NC(=C(C#N)C(=O)OCC)c1cn(C)cc1C(F)(F)F [Compound 1038] | 3.21^[a] | 
CC#CC(C)(C)NC(=C(C#N)C(=O)OCC)c1sccc1C(F)(F)F [Compound 1040] | 3.92^[a] | 
CC#CC(C)(C)NC(=C(C#N)C(=O)OC)c1sc(C)nc1C(F)(F)F [Compound 1042] | 3.35^[a] | 
CC#CC(C)(C)NC(=C(C#N)C(=O)OCC)c1cn(C)nc1C(F)F [Compound 1043] | 2.9^[a] | 
C#CCNC(=C(C#N)C(=O)OCC)c1cccnc1Cl [Compound 1044] |  | Log P (pH 2.3): 2.18; Log P (pH 7.5): 2.05
C#CC(C)NC(=C(C#N)C(=O)OC)c1sc(C)nc1C(F)(F)F (centres unmarked) [Compound 1048] | 2.73^[a] | 
C#CC(C)NC(=C(C#N)C(=O)OCC)c1cn(C)nc1C(F)F (centres unmarked) [Compound 1049] | 2.44^[a] | 
C#CC(C)NC(=C(C#N)C(=O)OCC)c1sc(C)nc1C(F)(F)F (centres unmarked) [Compound 1050] | 3.06^[a] | 
CC#CC(C)NC(=C(C#N)C(=O)OC)c1cccnc1Cl (centres unmarked) [Compound 1051] | 2.5^[a] | 
CC#CC(C)NC(=C(C#N)C(=O)OCC)c1cccnc1Cl (centres unmarked) [Compound 1052] | 2.86^[a] | 
CCOC(=O)C(C#N)=C(NC1CC1C(F)(F)F)c1cccnc1Cl (centres unmarked) [Compound 1054] | 2.9^[a] | 
CCOC(=O)C(C#N)=C(NC1CC1(C)C)c1cccnc1Cl (centres unmarked) [Compound 1055] | 3.25^[a] | 
CCOC1CCCC1NC(=C(C#N)C(=O)OC)c1cccnc1Cl (centres unmarked) [Compound 1059] | 2.93^[a] | 
CCOC(=O)C(C#N)=C(NC1CC1CC)c1cccnc1Cl (centres unmarked) [Compound 1062] | 3.27^[a] | 
CCOC(=O)C(C#N)=C(NC1CCC1C)c1cccnc1Cl (centres unmarked) [Compound 1065] | 3.37^[a] | 
CCOC(=O)C(C#N)=C(NC1CCCCC1C)c1cccnc1Cl (centres unmarked) [Compound 1066] |  | Log P (pH 2.3): 3.84; Log P (pH 7.5): 3.7
CCOC(=O)C(C#N)=C(NC1CC1C)c1cccnc1Cl (centres unmarked) [Compound 1067] | 2.86^[a] | 
CCOC(=O)C(C#N)=C(NC1CC(C)C1)c1cccnc1Cl (centres unmarked) [Compound 1073] | 3.3^[a] | 
CCOC(=O)C(C#N)=C(NC1CCc2ccccc21)c1cn(C)nc1C(F)F (centres unmarked) [Compound 1079] | 3.42^[a] | 
CCOC(=O)C(C#N)=C(NC1CC2CCC1C2)c1cccnc1Cl (centres unmarked) [Compound 1080] |  | Log P (pH 2.3): 3.59; Log P (pH 7.5): 3.57
